We go through three compounds from ChEMBL document CHEMBL2176906, “Diterpenoids isolated from Sideritis species protect astrocytes against oxidative stress via Nrf2” (J Nat Prod, 2012).

Calls of active or inactive are those of the source. The calls are words filed in the database; no cut-off is given here. Bounds are passed on as bounds.

The subject of series [1] is U-373MG ATCC. As to the kind of experiment: Antioxidant activity in human U373MG cells assessed as reduction in H2O2-induced cytotoxicity preincubated at 10 uM for 24 hrs before H2O2 challenge by MTT assay. It counts as functional, cell-based.
Series [2] concerns U373 MG. As to the kind of experiment: Inhibition of H2O2-induced oxidative stress in human U373MG cells assessed as GSH/GSSG ratio at 5 uM (reference value: 1.8 +/- 0.1 ). It counts as functional, U-373MG ATCC.
The target in series [3] is T1, Nuclear factor erythroid 2-related factor 2 (Homo sapiens) (UniProt Q16236).
T1 sequence (whole entry): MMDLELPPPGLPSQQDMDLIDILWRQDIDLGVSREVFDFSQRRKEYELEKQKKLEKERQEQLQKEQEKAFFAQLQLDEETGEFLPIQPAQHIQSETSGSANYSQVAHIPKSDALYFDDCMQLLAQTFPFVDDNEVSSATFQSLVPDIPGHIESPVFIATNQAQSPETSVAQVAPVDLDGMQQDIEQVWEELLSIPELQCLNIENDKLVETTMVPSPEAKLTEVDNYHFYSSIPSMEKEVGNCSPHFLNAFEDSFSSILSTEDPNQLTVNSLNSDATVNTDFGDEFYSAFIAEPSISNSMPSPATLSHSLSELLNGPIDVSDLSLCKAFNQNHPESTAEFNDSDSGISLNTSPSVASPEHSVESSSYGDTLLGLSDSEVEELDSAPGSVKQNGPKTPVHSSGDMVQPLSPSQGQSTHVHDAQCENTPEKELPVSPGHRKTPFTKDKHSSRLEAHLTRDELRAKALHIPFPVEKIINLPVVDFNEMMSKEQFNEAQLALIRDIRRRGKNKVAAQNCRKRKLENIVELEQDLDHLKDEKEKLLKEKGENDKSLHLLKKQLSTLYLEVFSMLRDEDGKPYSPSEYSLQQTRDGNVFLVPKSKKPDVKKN
As to the kind of experiment: Induction of Nrf2-mediated CAT protein expression in H2O2-stimulated human U373MG cells preincubated at 10 uM for 24 hrs before H2O2 challenge by Western blot method. It counts as cell-based. The note with it: U-373MG ATCC. (In general: In western blotting, separated proteins are transferred to a membrane and probed.)

The subject of series [4] is U373 MG. As to the kind of experiment: Inhibition of AAPH-induced oxidative stress in human U373MG cells assessed as peroxy radical scavenging activity at 5 uM by ORAC assay. It counts as functional, cell-based. Conditions: U-373MG ATCC.
In series [5] the test system is U373 MG. As to the kind of experiment: Induction of SOD activity in human U373MG cells assessed per mg protein preincubated at 10 uM for 24 hrs before H2O2 challenge by fluorimetric method (reference value: 14.2 +/- 3 UI/mg protein). It counts as functional, U-373MG ATCC.
In series [6] the test system is U373 MG. Nature of the series: Induction of total GPx activity in human U373MG cells assessed as […] per mg protein preincubated at 10 uM for 24 hrs before H2O2 challenge by fluorimetric method (reference value: 58.5 +/- 5.1 nmol/min/mg protein). It counts as functional, U-373MG ATCC.
Series [7] can be described thus: Cytotoxicity against human U373MG cells assessed as LDH release at 1 to 10 uM after 24 hrs by LDH assay. It counts as cell-based. Conditions: u-373mg atcc.
A short description of series [8]: Cytotoxicity against human U373MG cells assessed as dye reduction at 1 to 10 uM after 24 hrs by MTT assay. It counts as cell-based, U-373MG ATCC. The note with it: read-out: Activity. A general note: Tetrazolium dyes change colour on reduction, which living cells bring about.
The nature of series [9]: Cytotoxicity against human U373MG cells at > 10 uM after 24 hrs by MTT assay. It counts as cell-based. The note with it: u-373mg atcc.
Series [10] has as its target T1, Nuclear factor erythroid 2-related factor 2 (Homo sapiens). Nature of the series: Induction of Nrf2-mediated GPx protein expression in H2O2-stimulated human U373MG cells preincubated at 10 uM for 24 hrs before H2O2 challenge by Western blot method. Conditions: U-373MG ATCC. It counts as cell-based.
Series [11] deals with U-373MG ATCC. Nature of the series: Antioxidant activity in human U373MG cells assessed as reduction in H2O2-induced cytotoxicity preincubated at 10 uM for 24 hrs before H2O2 challenge by LDH assay. It counts as functional, cell-based.
Series [12] relates to U-373MG ATCC. As to the kind of experiment: Antioxidant activity in human U373MG cells assessed as reduction in H2O2-induced cytotoxicity preincubated at 5 uM for 24 hrs before H2O2 challenge by LDH assay. It counts as functional, cell-based.
Series [13] has as its system U-373MG ATCC. Nature of the series: Antioxidant activity in human U373MG cells assessed as reduction in H2O2-induced cytotoxicity preincubated at 5 uM for 24 hrs before H2O2 challenge by MTT assay. It counts as functional, cell-based.
Series [14] deals with U-373MG ATCC. Nature of the series: Antioxidant activity in human U373MG cells assessed as reduction in H2O2-induced morphological changes preincubated at 5 uM for 24 hrs before H2O2 challenge by phase-contrast microscopy. It counts as functional, cell-based.
The test system of series [15] is U373 MG. As to the kind of experiment: Inhibition of H2O2-induced lipid peroxidation in human U373MG cells assessed as reduction in MDA levels per mg protein at 10 uM by HPLC analysis (reference value: 0.95 +/- 0.03 nmol/mg protein). It counts as functional, U-373MG ATCC.
Series [16] has as its system U-373MG ATCC. As to the kind of experiment: Antioxidant activity in human U373MG cells assessed as reduction in H2O2-induced cytotoxicity preincubated for 24 hrs before H2O2 challenge by MTT assay. It counts as functional, cell-based.
Series [17] can be described thus: Cytotoxicity against human U373MG cells at 1 to 100 uM after 24 hrs by MTT assay. It counts as cell-based. The note with it: u-373mg atcc.
Series [18] has as its target T1, Nuclear factor erythroid 2-related factor 2 (Homo sapiens). Nature of the series: Induction of Nrf2-mediated glutathione reductase protein expression in H2O2-stimulated human U373MG cells preincubated at 10 uM for 24 hrs before H2O2 challenge by Western blot method. It counts as cell-based. Conditions: U-373MG ATCC.
The target is the same in series [19]. As to the kind of experiment: Induction of Nrf2-mediated HO-1 protein expression in H2O2-stimulated human U373MG cells preincubated at 5 uM for 24 hrs before H2O2 challenge by Western blot method. It counts as cell-based. Conditions: U-373MG ATCC.
Series [20] in a line: Cytotoxicity against human U373MG cells at 1 to 100 uM after 24 hrs by LDH assay. It counts as cell-based. Conditions: u-373mg atcc.
Series [21] can be described thus: Antioxidant activity in human U373MG cells assessed as reduction in H2O2-induced ROS production preincubated at 5 to 10 uM for 24 hrs before H2O2 challenge by DCFH-DA assay relative to untreated control. It counts as functional, U-373MG ATCC.
Series [22] has as its target T1, Nuclear factor erythroid 2-related factor 2 (Homo sapiens). As to the kind of experiment: Induction of Nrf2-mediated HO-1 protein expression in H2O2-stimulated human U373MG cells preincubated at 10 uM for 24 hrs before H2O2 challenge by Western blot method. It counts as cell-based. Conditions: U-373MG ATCC.
The subject of series [23] is U-373MG ATCC. Nature of the series: Antioxidant activity in human U373MG cells assessed as reduction in H2O2-induced cytotoxicity preincubated for 24 hrs before H2O2 challenge by LDH assay. It counts as functional, cell-based.
Series [24] deals with T1, Nuclear factor erythroid 2-related factor 2 (Homo sapiens). Nature of the series: Induction of Nrf2-mediated glutathione reductase protein expression in H2O2-stimulated human U373MG cells preincubated at 5 uM for 24 hrs before H2O2 challenge by Western blot method. It counts as cell-based. Conditions: U-373MG ATCC.
Series [25] has as its system U-373MG ATCC. As to the kind of experiment: Antioxidant activity in human U373MG cells assessed as reduction in H2O2-induced ROS production preincubated at 10 uM for 24 hrs before H2O2 challenge by DCFH-DA assay. It counts as functional, cell-based.
Series [26] deals with U-373MG ATCC. As to the kind of experiment: Antioxidant activity in human U373MG cells assessed as reduction in H2O2-induced ROS production preincubated at 5 uM for 24 hrs before H2O2 challenge by DCFH-DA assay. It counts as functional, cell-based.
Series [27] can be described thus: Cytotoxicity against human U373MG cells at > 50 uM after 24 hrs by MTT assay. It counts as cell-based. The note with it: u-373mg atcc.

Take `CC1(C)CCC[C@]2(C)[C@@H]1C[C@H](O)[C@@]13C=C[C@@](CO)(C1)[C@H](O)C[C@@H]23` [CONCHITRIOL]: the outcome in the series on U-373MG ATCC [1], in the series on U-373MG ATCC [11], in the series on U-373MG ATCC [12], with U-373MG ATCC [13] and in the series with U-373MG ATCC [14] was Active. In addition, in the series with U373 MG [2], the Ratio is reported as 2. In addition, the outcome (in series [3]; in the series with U373 MG [4]; in series [10]) was inactive. The Activity is listed as 18.8 IU with U373 MG [5]; 52.6 nmol/min with U373 MG [6]; under 10% in series [7]; “Toxic” in series [9]; 0.87 nmol in the series with U373 MG [15]. Further, the viability at 24 h, up to 10 µM in series [8] was 90%.

As for `C=CC(=C)CC[C@H]1[C@]2(C)CCC[C@](C)(CO)[C@H]2[C@H](O)C[C@]1(C)O` [ANDALUSOL], the Ratio with U373 MG [2] is given as 5.1; in series [21] it was 1.4. Also, the Activity result in the series with U-373MG ATCC [16] was “Dose-dependent effect”; in series [17] it was “Non-toxic”; with U373 MG [5], 26 IU; in the series with U373 MG [6] it was 82.4 nmol/min; in series [7], under 10%; in [20] it was “Non-toxic”. For the same compound, the results for the Activity entry in the series with U-373MG ATCC [23] and with U373 MG [15] were “Dose-dependent effect” and 0.51 nmol, respectively. For the same compound, the outcome (in [3]; in series [18]; in series [19]; in series [10]; in series [22]; with U-373MG ATCC [14]) was Active. The outcome in series [24] was Active. For the same compound, the outcome with U373 MG [4] was inactive. Moreover, the viability at 24 h, up to 10 µM in series [8] is 90%.

Take `CC1(C)CCC[C@H]2C1=CC[C@H]1C[C@@](C)([C@@H](O)CO)C[C@@H](O)[C@@]12C` [LAGASCATRIOL]: in the series with U373 MG [2], the Ratio was 3.8. The Activity result in the series with U-373MG ATCC [16] was “Dose-dependent effect”; in the series with U373 MG [5], 23.9 IU; in the series on U373 MG [6], 85.2 nmol/min; in series [7], under 10%; in the series with U-373MG ATCC [23], “Dose-dependent effect”; in [27], “Toxic”. In addition, the Activity in the series on U373 MG [15] was 0.57 nmol. Moreover, the result (in [3]; in [18]; in series [19]; with U-373MG ATCC [25]; in the series on U-373MG ATCC [26]; in series [10]) was Active. The result (in series [22]; in the series with U-373MG ATCC [14]; in series [24]) was Active. Also, the result in the series with U373 MG [4] was inactive. For the same compound, the viability at 24 h, up to 10 µM in series [8] was determined as 90%.
